From patent publication US12180189B2, “Proteostasis regulators” (Kineta, Inc., priority 2011, dated 2024)

Target: USP14 (Homo sapiens, UniProt P54578)
Assay: USP14 inhibition (methodology of B. H. Lee et al. Nature 2010)
Type: biochemical
Details: average value from three experimental determinations
Description: Known USP14 inhibitor IU1 (1-(1-(4-fluorophenyl)-2,5-dimethyl-1H-pyrrol-3-yl)-2-(pyrrolidin-1-yl)ethanone; B. H. Lee et al. Nature 2010, 467 (9), 179) was used as a comparative reference agent. The IC50 values in the Table below represent the average value from three experimental determinations. In the table below, “A” represents an IC50 of 0 to 5 uM, “B” represents an IC50 of 5 to 10 uM, and “C” represents and IC50 of greater than 10 uM.

USP14, sequence (P54578 whole entry): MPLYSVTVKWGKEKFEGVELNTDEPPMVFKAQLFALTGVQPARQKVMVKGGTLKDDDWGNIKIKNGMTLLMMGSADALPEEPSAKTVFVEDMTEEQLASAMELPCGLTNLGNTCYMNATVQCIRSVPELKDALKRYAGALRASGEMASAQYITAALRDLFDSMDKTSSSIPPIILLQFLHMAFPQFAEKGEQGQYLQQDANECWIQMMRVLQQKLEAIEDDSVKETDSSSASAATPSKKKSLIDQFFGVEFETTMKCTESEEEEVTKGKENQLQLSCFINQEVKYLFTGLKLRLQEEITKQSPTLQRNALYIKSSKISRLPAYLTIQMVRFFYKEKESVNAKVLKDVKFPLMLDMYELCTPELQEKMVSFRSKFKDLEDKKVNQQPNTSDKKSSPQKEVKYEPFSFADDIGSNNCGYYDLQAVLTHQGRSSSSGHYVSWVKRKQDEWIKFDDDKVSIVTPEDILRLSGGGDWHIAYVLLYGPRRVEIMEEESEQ
USP14, sequence (Q13200 whole entry partner): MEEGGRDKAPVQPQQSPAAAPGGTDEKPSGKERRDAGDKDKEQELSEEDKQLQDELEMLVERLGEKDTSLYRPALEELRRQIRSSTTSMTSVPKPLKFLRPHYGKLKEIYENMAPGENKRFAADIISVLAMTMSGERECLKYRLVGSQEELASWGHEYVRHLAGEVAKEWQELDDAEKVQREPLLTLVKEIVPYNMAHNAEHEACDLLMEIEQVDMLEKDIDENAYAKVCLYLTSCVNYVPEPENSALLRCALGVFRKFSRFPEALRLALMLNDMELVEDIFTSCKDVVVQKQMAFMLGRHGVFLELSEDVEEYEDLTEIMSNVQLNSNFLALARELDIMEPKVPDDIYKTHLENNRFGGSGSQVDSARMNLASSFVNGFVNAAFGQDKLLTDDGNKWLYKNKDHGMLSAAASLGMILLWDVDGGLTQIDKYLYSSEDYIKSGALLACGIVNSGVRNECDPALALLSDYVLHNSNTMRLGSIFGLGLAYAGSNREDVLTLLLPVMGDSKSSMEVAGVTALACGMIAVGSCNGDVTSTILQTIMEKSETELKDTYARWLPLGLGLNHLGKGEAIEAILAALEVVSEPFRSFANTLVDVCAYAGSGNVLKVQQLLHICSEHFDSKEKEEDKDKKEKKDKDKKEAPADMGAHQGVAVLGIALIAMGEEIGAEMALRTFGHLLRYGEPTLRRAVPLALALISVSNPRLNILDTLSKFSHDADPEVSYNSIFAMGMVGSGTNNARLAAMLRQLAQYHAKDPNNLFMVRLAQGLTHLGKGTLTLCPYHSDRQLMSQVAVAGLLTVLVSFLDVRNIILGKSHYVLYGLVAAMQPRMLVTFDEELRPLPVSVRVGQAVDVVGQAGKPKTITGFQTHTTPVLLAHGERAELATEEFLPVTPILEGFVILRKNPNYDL
USP14, sequence (P35998 whole entry partner): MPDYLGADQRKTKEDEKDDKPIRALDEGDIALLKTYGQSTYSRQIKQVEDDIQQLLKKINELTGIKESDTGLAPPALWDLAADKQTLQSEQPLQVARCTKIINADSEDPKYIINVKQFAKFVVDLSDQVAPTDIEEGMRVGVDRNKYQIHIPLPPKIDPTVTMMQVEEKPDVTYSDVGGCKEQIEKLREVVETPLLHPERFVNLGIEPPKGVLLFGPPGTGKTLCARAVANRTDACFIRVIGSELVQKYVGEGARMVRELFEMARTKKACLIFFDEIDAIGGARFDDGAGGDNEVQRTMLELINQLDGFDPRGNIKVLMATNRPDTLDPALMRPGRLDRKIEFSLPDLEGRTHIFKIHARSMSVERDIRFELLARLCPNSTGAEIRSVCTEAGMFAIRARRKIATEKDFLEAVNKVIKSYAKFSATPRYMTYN

**Q.** Which IC50 does the source give for `Cc1cc(C(=O)CC2CCCC2)c(C)n1-c1ccc(Cl)cc1` [Compound A1, 1-[1-(4-Chloro-phenyl)-2,5-dimethyl-1H-pyrrol-3-yl]-2-cyclopentyl-ethanone] here?
**A.** > 10 µM

**Q.** With `Cc1cc(C(=O)CC2CCCCC2)c(C)n1-c1ccc(Cl)cc1` [Compound A2, 1-[1-(4-Chloro-phenyl)-2,5-dimethyl-1H-pyrrol-3-yl]-2cyclohexyl-ethanone] as the compound, how does the IC50 read?
**A.** > 10 µM

**Q.** `Cc1cc(C(=O)C(F)F)c(C)n1-c1ccc(Cl)cc1` [Compound A3, 1-(1-(4-chlorophenyl)-2,5-dimethyl-1H-pyrrol-3-yl)-2,2-difluoroethanone] was tested. Which IC50 did it give?
**A.** > 10 µM

**Q.** Which IC50 does the source give for `Cc1cc(C(=O)CC(F)(F)F)c(C)n1-c1ccc(Cl)cc1` [Compound A4, 1-(1-(4-chlorophenyl)-2,5-dimethyl-1H-pyrrol-3-yl)-3,3,3-trifluoropropan-1-one] here?
**A.** > 10 µM

**Q.** With `Cc1cc(C(=O)C(=O)O)c(C)n1-c1ccc(Cl)cc1` [Compound A5, 2-(1-(4-chlorophenyl)-2,5-dimethyl-1H-pyrrol-3-yl)-2-oxoacetic acid] as the compound, how does the IC50 read?
**A.** > 10 µM

**Q.** With `Cc1cc(C(=O)C(=O)N2CCC(F)CC2)c(C)n1-c1ccc(Cl)cc1` [Compound A7, 1-(1-(4-chlorophenyl)-2,5-dimethyl-1H-pyrrol-3-yl)-2-(4-fluoropiperidin-1-yl)ethane-1,2-dione] as the compound, how does the IC50 read?
**A.** > 10 µM

**Q.** With `Cc1cc(C(=O)CCl)c(C)n1-c1ccc(Cl)cc1` [Compound A8, 2-chloro-1-(1-(4-chlorophenyl)-2,5-dimethyl-1H-pyrrol-3-yl)ethanone] as the compound, how does the IC50 read?
**A.** > 10 µM

**Q.** `Cc1cc(C(=O)Cn2cccc2)c(C)n1-c1ccc(Cl)cc1` [Compound A9, 1-[1-(4-Chloro-phenyl)-2,5-dimethyl-1H-pyrrol-3-yl]-2-pyrrol-1-yl-ethanone] was tested. Which IC50 did it give?
**A.** > 10 µM

**Q.** `Cc1cc(C(=O)Cn2ccnc2)c(C)n1-c1ccc(Cl)cc1` [Compound A10, 1-[1-(4-Chloro-phenyl)-2,5-dimethyl-1H-pyrrol-3-yl]-2-imidazol-1-yl-ethanone] was tested. Which IC50 did it give?
**A.** > 10 µM

**Q.** For `Cc1cc(C(=O)CN2CCCCC2)c(C)n1C` [Compound A11, 2-(piperidin-1-yl)-1-(1,2,5-trimethyl-1H-pyrrol-3-yl)ethanone], which IC50 is on record?
**A.** > 10 µM

**Q.** `Cc1cc(C(=O)CN2CCCC2)c(C)n1C` [Compound A12, 2-(pyrrolidin-1-yl)-1-(1,2,5-trimethyl-1H-pyrrol-3-yl)ethanone] was tested. Which IC50 did it give?
**A.** > 10 µM

**Q.** How did the IC50 turn out when `Cc1c(C(=O)CN2CCCC2)cnn1-c1ccc(Cl)cc1` [Compound A14, 1-[1-(4-Chloro-phenyl)-5-methyl-1H-pyrazol-4-yl]-2-pyrrolidin-1-yl-ethanone] was run?
**A.** < 5 µM

**Q.** With `Cc1nn(-c2ccc(Cl)cc2)c(C)c1C(=O)CN1CCCCC1` [Compound A18, 1-[1-(4-Chloro-phenyl)-3,5-dimethyl-1H-pyrazol-4-yl]-2-piperidin-1-yl-ethanone] as the compound, how does the IC50 read?
**A.** 5 to 10 µM

**Q.** With `Cc1nn(-c2ccc(Cl)cc2)c(C)c1C(=O)CN1CCCC1` [Compound A19, 1-[1-(4-Chloro-phenyl)-3,5-dimethyl-1H-pyrazol-4-yl]-2-Pyrrolidine-1-yl-ethanone] as the compound, how does the IC50 read?
**A.** < 5 µM

**Q.** For `Cc1nn(-c2ccc(Cl)cc2)c(C)c1C(=O)CN(C)C1CC1` [Compound A20, 1-[1-(4-Chloro-phenyl)-3,5-dimethyl-1H-pyrazol-4-yl]-2-(Cyclopropyl-methyl-amino)-ethanone], which IC50 is on record?
**A.** > 10 µM

**Q.** With `Cc1nn(-c2ccc(Cl)cc2)c(C)c1C(=O)CC1CCCCC1` [Compound A21, 1-(1-(4-chlorophenyl)-3,5-dimethyl-1H-pyrazol-4-yl)-2-cyclohexylethanone] as the compound, how does the IC50 read?
**A.** > 10 µM

**Q.** `O=C(CN1CCCCC1)c1cnn(-c2ccc(Cl)cc2)c1` [Compound A22, 1-[1-(4-Chloro-phenyl)-1H-pyrazol-4-yl]-2-piperidin-1-yl-ethanone] was tested. Which IC50 did it give?
**A.** > 10 µM

**Q.** How did the IC50 turn out when `O=C(CN1CCCC1)c1cnn(-c2ccc(Cl)cc2)c1` [Compound A23, 1-[1-(4-Chloro-phenyl)-1H-pyrazol-4-yl]-2-pyrrolidin-1-yl-ethanone] was run?
**A.** > 10 µM

**Q.** `CN(CC(=O)c1cnn(-c2ccc(Cl)cc2)c1)C1CC1` [Compound A24, 1-[1-(4-Chloro-phenyl)-1H-pyrazol-4-yl]-2-(cyclopropyl-methyl-amino)-ethanone] was tested. Which IC50 did it give?
**A.** > 10 µM

**Q.** With `Cc1oc(-c2ccc(Cl)cc2)nc1C(=O)CN1CCCCC1` [Compound A25, 1-[2-(4-Chloro-phenyl)-5-methyl-oxazol-4-yl]-2-piperidin-1-yl-ethanone] as the compound, how does the IC50 read?
**A.** > 10 µM

**Q.** With `O=C(CN1CCCCC1)c1cc(-c2ccc(Cl)cc2)ns1` [Compound A26] as the compound, how does the IC50 read?
**A.** > 10 µM

**Q.** `Cc1sc(-c2ccc(Cl)cc2)cc1C(=O)CN1CCCCC1` [Compound A27, 1-(5-(4-chlorophenyl)-2-methylthiophen-3-yl)-2-(piperidin-1-yl)ethanone] was tested. Which IC50 did it give?
**A.** > 10 µM

**Q.** How did the IC50 turn out when `Cc1sc(-c2ccc(Cl)cc2)cc1C(=O)CN1CCC(F)CC1` [Compound A28, 1-(5-(4-chlorophenyl)-2-methylthiophen-3-yl)-2-(4-fluoropiperidin-1-yl)ethanone] was run?
**A.** > 10 µM

**Q.** With `Cc1sc(-c2ccc(Cl)cc2)cc1C(=O)CN1CCC(O)CC1` [Compound A29, 1-(5-(4-chlorophenyl)-2-methylthiophen-3-yl)-2-(4-hydroxypiperidin-1-yl)ethanone] as the compound, how does the IC50 read?
**A.** > 10 µM

**Q.** `Cc1c(C(=O)CN2CCCC2)nnn1-c1ccc(F)cc1` [Compound A30, 1-(1-(4-fluorophenyl)-5-methyl-1H-1,2,3-triazol-4-yl)-2-(pyrrolidin-1-yl)ethanone] was tested. Which IC50 did it give?
**A.** > 10 µM

**Q.** `O=C(CN1CCCC1)N1CCN(c2ccc(Cl)cc2)CC1` [Compound A31, 1-(4-(4-chlorophenyl)piperazin-1-yl)-2-(pyrrolidin-1-yl)ethanone] was tested. Which IC50 did it give?
**A.** > 10 µM

**Q.** `O=C(CN1CCCCC1)N1CCN(c2ccc(F)cc2)CC1` [Compound A32, 1-(4-(4-fluorophenyl)piperazin-1-yl)-2-(piperidin-1-yl)ethanone] was tested. Which IC50 did it give?
**A.** > 10 µM

**Q.** How did the IC50 turn out when `Cc1cc(C(=O)C(C)N2CCC(C(N)=O)CC2)c(C)n1-c1ccc(Cl)cc1` (stereo not shown) [Compound A44] was run?
**A.** > 10 µM

**Q.** With `CNC(=O)C1CCN(C(C)C(=O)c2cc(C)n(-c3ccc(Cl)cc3)c2C)CC1` (stereo not shown) [Compound A45] as the compound, how does the IC50 read?
**A.** > 10 µM

**Q.** How did the IC50 turn out when `COC(=O)C1CCN(C(C)C(=O)c2cc(C)n(-c3ccc(Cl)cc3)c2C)CC1` (stereo not shown) [Compound A46] was run?
**A.** > 10 µM

**Q.** How did the IC50 turn out when `Cc1cc(C#N)c(C)n1-c1ccc(Cl)cc1` [Compound A47] was run?
**A.** > 10 µM
